Experimental data published in ChEMBL document CHEMBL3885861, “Open TG-GATES”.

Organism: Rattus norvegicus
Test: Open TG-GATES - Regimen: Daily Repeat
Type: toxicity, organism-based, Sprague-Dawley
Design: regimen Daily Repeat, gender Male, age 6 weeks
Conditions: in vivo, po, 30 mg/kg, route gavage, dose level Middle; for APTT / Bas / Eos / Fbg / Hb / Ht / Lym / MCH / MCHC / MCV / Mono / Neu / PT / Plat / RBC / Ret / WBC: tissue Blood; for KIDNEY_L / KIDNEY_R / KIDNEY_TOTAL: tissue Kidney; for LIVER: tissue Liver; for A/G / ALP / ALT / AST / BUN / CRE / Ca / Cl / DBIL / GLC / IP / K / LDH / Na / PL / RALB / TBIL / TC / TG / TP / gamma-GTP: tissue Plasma

CN(C)CCN(Cc1cccs1)c1ccccn1
TERMINAL_BW (72 h, time 3 day): 210.2 g | APTT (72 h, time 3 day): 20.9 s | Bas (72 h, time 3 day): 0% | Eos (72 h, time 3 day): 0.6% | Fbg (72 h, time 3 day): 325.4 mg/dL | Hb (72 h, time 3 day): 13.2 g/dL | Ht (72 h, time 3 day): 38.8% | Lym (72 h, time 3 day): 80% | MCH (72 h, time 3 day): 21.7 pg | MCHC (72 h, time 3 day): 34% | MCV (72 h, time 3 day): 63.8 fL | Mono (72 h, time 3 day): 2% | Neu (72 h, time 3 day): 16.4% | PT (72 h, time 3 day): 15.9 s | Plat (72 h, time 3 day): 116.7 x10_4/uL | RBC (72 h, time 3 day): 609 x10_4/ul | Ret (72 h, time 3 day): 6.1% | WBC (72 h, time 3 day): 94.3 x10_2/uL | KIDNEY_L (72 h, time 3 day): 1 g | KIDNEY_R (72 h, time 3 day): 1 g | KIDNEY_TOTAL (72 h, time 3 day): 2 g | LIVER (72 h, time 3 day): 10.2 g | A/G (72 h, time 3 day): 1.2 | ALP (72 h, time 3 day): 1737.4 IU/L | ALT (72 h, time 3 day): 45.2 IU/L | AST (72 h, time 3 day): 75.8 IU/L | BUN (72 h, time 3 day): 15 mg/dL | CRE (72 h, time 3 day): 0.1 mg/dL | Ca (72 h, time 3 day): 11 mg/dL | Cl (72 h, time 3 day): 106.2 meq/L | DBIL (72 h, time 3 day): 0 mg/dL | GLC (72 h, time 3 day): 175.4 mg/dL | IP (72 h, time 3 day): 7.7 mg/dL | K (72 h, time 3 day): 4.3 meq/L | LDH (72 h, time 3 day): 224.4 IU/L | Na (72 h, time 3 day): 142 meq/L | PL (72 h, time 3 day): 140.8 mg/dL | RALB (72 h, time 3 day): 2.9 g/dL | TBIL (72 h, time 3 day): 0.012 mg/dL | TC (72 h, time 3 day): 72.6 mg/dL | TG (72 h, time 3 day): 82 mg/dL | TP (72 h, time 3 day): 5.4 g/dL | gamma-GTP (72 h, time 3 day): 1.2 IU/L | TERMINAL_BW ([…], time 7 day): 254.5 g | TERMINAL_BW ([…], time 14 day): 275 g | TERMINAL_BW ([…], time 28 day): 322.8 g | APTT ([…], time 7 day): 20.7 s | Bas ([…], time 7 day): 0% | Eos ([…], time 7 day): 0.8% | Fbg ([…], time 7 day): 304.2 mg/dL | Hb ([…], time 7 day): 13.2 g/dL | Ht ([…], time 7 day): 39.1% | Lym ([…], time 7 day): 78.6% | MCH ([…], time 7 day): 21.4 pg | MCHC ([…], time 7 day): 33.7% | MCV ([…], time 7 day): 63.5 fL | Mono ([…], time 7 day): 1.6% | Neu ([…], time 7 day): 18% | PT ([…], time 7 day): 15.9 s | Plat ([…], time 7 day): 120.9 x10_4/uL | RBC ([…], time 7 day): 617 x10_4/ul | Ret ([…], time 7 day): 6.3% | WBC ([…], time 7 day): 124 x10_2/uL | APTT ([…], time 14 day): 21.4 s | Bas ([…], time 14 day): 0% | Eos ([…], time 14 day): 1% | Fbg ([…], time 14 day): 309.6 mg/dL | Hb ([…], time 14 day): 14.2 g/dL | Ht ([…], time 14 day): 41.2% | Lym ([…], time 14 day): 77.8% | MCH ([…], time 14 day): 20.5 pg | MCHC ([…], time 14 day): 34.4% | MCV ([…], time 14 day): 59.6 fL | Mono ([…], time 14 day): 2.4% | Neu ([…], time 14 day): 18.6% | PT ([…], time 14 day): 16.2 s | Plat ([…], time 14 day): 108.7 x10_4/uL | RBC ([…], time 14 day): 691.6 x10_4/ul | Ret ([…], time 14 day): 3.9% | WBC ([…], time 14 day): 110.7 x10_2/uL | APTT ([…], time 28 day): 20.7 s | Bas ([…], time 28 day): 0% | Eos ([…], time 28 day): 1.4% | Fbg ([…], time 28 day): 282 mg/dL | Hb ([…], time 28 day): 14.6 g/dL | Ht ([…], time 28 day): 42.2% | Lym ([…], time 28 day): 74.2% | MCH ([…], time 28 day): 19.2 pg | MCHC ([…], time 28 day): 34.5% | MCV ([…], time 28 day): 55.5 fL | Mono ([…], time 28 day): 2.6% | Neu ([…], time 28 day): 21.4% | PT ([…], time 28 day): 16.1 s | Plat ([…], time 28 day): 106.9 x10_4/uL | RBC ([…], time 28 day): 760.6 x10_4/ul | Ret ([…], time 28 day): 2.7% | WBC ([…], time 28 day): 115.8 x10_2/uL | KIDNEY_L ([…], time 7 day): 1.1 g | KIDNEY_R ([…], time 7 day): 1.1 g | KIDNEY_TOTAL ([…], time 7 day): 2.2 g | KIDNEY_L ([…], time 14 day): 1.1 g | KIDNEY_R ([…], time 14 day): 1.2 g | KIDNEY_TOTAL ([…], time 14 day): 2.3 g | KIDNEY_L ([…], time 28 day): 1.3 g | KIDNEY_R ([…], time 28 day): 1.3 g | KIDNEY_TOTAL ([…], time 28 day): 2.5 g | LIVER ([…], time 7 day): 11.7 g | LIVER ([…], time 14 day): 11.9 g | LIVER ([…], time 28 day): 13.7 g | A/G ([…], time 7 day): 1.1 | ALP ([…], time 7 day): 1578.6 IU/L | ALT ([…], time 7 day): 40.4 IU/L | AST ([…], time 7 day): 69.2 IU/L | BUN ([…], time 7 day): 17.6 mg/dL | CRE ([…], time 7 day): 0.2 mg/dL | Ca ([…], time 7 day): 10.7 mg/dL | Cl ([…], time 7 day): 107 meq/L | DBIL ([…], time 7 day): 0 mg/dL | GLC ([…], time 7 day): 170.4 mg/dL | IP ([…], time 7 day): 7 mg/dL | K ([…], time 7 day): 4.3 meq/L | LDH ([…], time 7 day): 132.4 IU/L | Na ([…], time 7 day): 144.4 meq/L | PL ([…], time 7 day): 134.4 mg/dL | RALB ([…], time 7 day): 2.9 g/dL | TBIL ([…], time 7 day): 0.012 mg/dL | TC ([…], time 7 day): 71.4 mg/dL | TG ([…], time 7 day): 64.8 mg/dL | TP ([…], time 7 day): 5.4 g/dL | gamma-GTP ([…], time 7 day): 1.8 IU/L | A/G ([…], time 14 day): 1.1 | ALP ([…], time 14 day): 1753 IU/L | ALT ([…], time 14 day): 54.4 IU/L | AST ([…], time 14 day): 98.2 IU/L | BUN ([…], time 14 day): 18.8 mg/dL | CRE ([…], time 14 day): 0.2 mg/dL | Ca ([…], time 14 day): 10.3 mg/dL | Cl ([…], time 14 day): 107.8 meq/L | DBIL ([…], time 14 day): 0.008 mg/dL | GLC ([…], time 14 day): 166.8 mg/dL | IP ([…], time 14 day): 6.8 mg/dL | K ([…], time 14 day): 4.1 meq/L | LDH ([…], time 14 day): 177.4 IU/L | Na ([…], time 14 day): 143.8 meq/L | PL ([…], time 14 day): 131.8 mg/dL | RALB ([…], time 14 day): 2.9 g/dL | TBIL ([…], time 14 day): 0.026 mg/dL | TC ([…], time 14 day): 70.2 mg/dL | TG ([…], time 14 day): 56 mg/dL | TP ([…], time 14 day): 5.5 g/dL | gamma-GTP ([…], time 14 day): 2 IU/L | A/G ([…], time 28 day): 1.1 | ALP ([…], time 28 day): 1511.8 IU/L | ALT ([…], time 28 day): 74.6 IU/L | AST ([…], time 28 day): 129.2 IU/L | BUN ([…], time 28 day): 17.6 mg/dL | CRE ([…], time 28 day): 0.2 mg/dL | Ca ([…], time 28 day): 10.3 mg/dL | Cl ([…], time 28 day): 107 meq/L | DBIL ([…], time 28 day): 0.008 mg/dL | GLC ([…], time 28 day): 169 mg/dL | IP ([…], time 28 day): 6.2 mg/dL | K ([…], time 28 day): 4.2 meq/L | LDH ([…], time 28 day): 182.2 IU/L | Na ([…], time 28 day): 141.8 meq/L | PL ([…], time 28 day): 140.4 mg/dL | RALB ([…], time 28 day): 3 g/dL | TBIL ([…], time 28 day): 0.022 mg/dL | TC ([…], time 28 day): 80 mg/dL | TG ([…], time 28 day): 39.4 mg/dL | TP ([…], time 28 day): 5.6 g/dL | gamma-GTP ([…], time 28 day): 2.8 IU/L
